System: BT20 Cell
Assay: Cancer Cell Lysate Total L-Glutamate Assay
Assay type: cell-based
Conditions: Homo sapiens, BT-20, 2 h, total L-glutamate in cell lysate, BT20 cells, 2 hour incubation with test compound
Summary of the method: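 BT20 and other cancer lines at ~80% confluence were given fresh L-glutamine-containing medium, then treated with serially diluted compound (0.5% DMSO) for 2 hours at 37° C. Washed cells were lysed by freeze-thaw and sonication. Lysate glutamate was measured via glutamate oxidase/HRP/50 μM Amplex Red fluorescence (ex 530-560, em 585 nm); IC50 by four-parameter logistic fit.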

Row | IC50 [nM] | Compound
1 | 6.9 | CC(=O)Nc1nnc([C@@H]2CC[C@H](Cc3nnc(NC(=O)Cc4ccn(C)n4)s3)C2)s1 (racemic) [Example 146, (rac)-N-[5-({(cis)-3-[5-(acetylamino)-1,3,4-thiadiazol-2-yl]cyclopentyl}methyl)-1,3,4-thiadiazol-2-yl]-2-(1-methyl-1H-pyrazol-3-yl)acetamide]
2 | 7.1 | CC(=O)Nc1nnc([C@@H]2CC[C@H](Cc3nnc(NC(=O)Cc4cscn4)s3)C2)s1 (racemic) [Example 145, (rac)-N-[5-({(cis)-3-[5-(acetylamino)-1,3,4-thiadiazol-2-yl]cyclopentyl}methyl)-1,3,4-thiadiazol-2-yl]-2-(1,3-thiazol-4-yl)acetamide]
3 | 21.4 | CC(=O)Nc1nnc(C[C@@H]2CC[C@H](c3nnc(NC(=O)Cc4ccccn4)s3)C2)s1 (single isomer, unassigned) [Example 57, N-{5-[(cis)-3-{[5-(acetylamino)-1,3,4-thiadiazol-2-yl]methyl}cyclopentyl]-1,3,4-thiadiazol-2-yl}-2-(pyridin-2-yl)acetamide]
4 | 284 | C[C@@H](C(=O)Nc1nnc(C[C@H]2CC[C@@H](c3nnc(NC(=O)[C@H](C)c4cccnc4)s3)C2)s1)c1cccnc1 (single isomer, unassigned) [Example 36, 2-(pyridin-3-yl)-N-(5-{[(cis)-3-(5-{[2-(pyridin-3-yl)propanoyl]amino}-1,3,4-thiadiazol-2-yl)cyclopentyl]methyl}-1,3,4-thiadiazol-2-yl)propanamide]
5 | 6.9 | CC(=O)Nc1nnc([C@@H]2CC[C@H](Cc3nnc(NC(=O)Cc4cn5ccccc5n4)s3)C2)s1 (racemic) [Example 149, (rac)-N-[5-({(cis)-3-[5-(acetylamino)-1,3,4-thiadiazol-2-yl]cyclopentyl}methyl)-1,3,4-thiadiazol-2-yl]-2-(imidazo[1,2-a]pyridin-2-yl)acetamide]
6 | 1.4 | O=C(Cc1ccccc1)Nc1nnc(C[C@@H]2CC[C@H](c3nnc(NC(=O)Cc4ccccc4)s3)C2)s1 (single isomer, unassigned) [Example 8]

The remaining lines, values behind:

Row | Compound | IC50 [nM]
7 | C[C@H](c1nnc(NC(=O)Cc2ccccn2)s1)[C@H]1C[C@@H](c2nnc(NC(=O)Cc3ccccn3)s2)C1 (single isomer, unassigned) [Example 102, 2-(pyridin-2-yl)-N-{5-[(1-(cis)-3-{5-[(pyridin-2-ylacetyl)amino]-1,3,4-thiadiazol-2-yl}cyclobutyl)ethyl]-1,3,4-thiadiazol-2-yl}acetamide] | 2
8 | Cn1ccc(CC(=O)Nc2nnc([C@H]3CC[C@@H](Cc4ccc(NC(=O)Cc5ccccn5)nn4)C3)s2)n1 (single isomer, unassigned) [Example 126, 2-(1-methyl-1H-pyrazol-3-yl)-N-{5-[(cis)-3-({6-[(pyridin-2-ylacetyl)amino]pyridazin-3-yl}methyl)cyclopentyl]-1,3,4-thiadiazol-2-yl}acetamide] | 0.5
9 | CCC(=O)Nc1ccc(C[C@H]2CC[C@@H](c3nnc(NC(=O)Cc4ccn(C)n4)s3)C2)nn1 (single isomer, unassigned) [Example 91, N-(6-{[(cis)-3-(5-{[(1-methyl-1H-pyrazol-3-yl)acetyl]amino}-1,3,4-thiadiazol-2-yl)cyclopentyl]methyl}pyridazin-3-yl)propanamide] | 1.5
10 | CC(=O)Nc1nnc(C[C@H]2C[C@H](c3nnc(NC(C)=O)s3)C2)s1 (single isomer, unassigned) [Example 63, N-[5-({trans-3-[5-(acetylamino)-1,3,4-thiadiazol-2-yl]cyclobutyl}methyl)-1,3,4-thiadiazol-2-yl]acetamide] | 110
11 | CC(=O)Nc1ccc(C[C@@H]2CC[C@H](c3nnc(NC(=O)Cc4ccccn4)s3)C2)nn1 (single isomer, unassigned) [Example 69, N-{5-[(cis)-3-{[6-(acetylamino)pyridazin-3-yl]methyl}cyclopentyl]-1,3,4-thiadiazol-2-yl}-2-(pyridin-2-yl)acetamide] | 2.5
12 | CCC(=O)Nc1ccc(C[C@@H]2CC[C@H](c3nnc(NC(=O)CCOC)s3)C2)nn1 (single isomer, unassigned) [Example 90, 3-methoxy-N-{5-[(cis)-3-{[6-(propanoylamino)pyridazin-3-yl]methyl}cyclopentyl]-1,3,4-thiadiazol-2-yl}propanamide] | 1.3
13 | Cc1ccc(CC(=O)Nc2nnc(C[C@H]3C[C@@H](c4nnc(NC(=O)Cc5ccc(C)cn5)s4)C3)s2)nc1 (single isomer, unassigned) [Example 108, 2-(5-methylpyridin-2-yl)-N-(5-{[cis-3-(5-{[(5-methylpyridin-2-yl)acetyl]amino}-1,3,4-thiadiazol-2-yl)cyclobutyl]methyl}-1,3,4-thiadiazol-2-yl)acetamide] | 0.3
14 | CC(C)C(=O)Nc1nnc(C2CC3(CC(c4nnc(NC(=O)Cc5ccccn5)s4)C3)C2)s1 (racemic) [Example 135, 2-methyl-N-[5-(6-{5-[(pyridin-2-ylacetyl)amino]-1,3,4-thiadiazol-2-yl}spiro[3.3]hept-2-yl)-1,3,4-thiadiazol-2-yl]propanamide] | 2.1
15 | O=C(Cc1ccccc1)Nc1ccc(C[C@H]2CC[C@@H](c3nnc(NC(=O)Cc4ccccn4)s3)C2)nn1 (single isomer, unassigned) [Example 81, 2-phenyl-N-(6-{[(cis)-3-{5-[(pyridin-2-ylacetyl)amino]-1,3,4-thiadiazol-2-yl}cyclopentyl]methyl}pyridazin-3-yl)acetamide] | 4.5
16 | CCNc1nnc([C@@H]2CC[C@H](Cc3ccc(NC(=O)Cc4ccccn4)nn3)C2)s1 (single isomer, unassigned) [Example 101, N-[6-({(cis)-3-[5-(ethylamino)-1,3,4-thiadiazol-2-yl]cyclopentyl}methyl)pyridazin-3-yl]-2-(pyridin-2-yl)acetamide] | 339

From patent US10676471B2, “Cycloalkyl-linked diheterocycle derivatives” (Pfizer Inc., priority 2014, dated 2020)
